Measured values published in patent publication US20160050932A1, “SYNERGISTIC COMBINATION OF A CHLOROTOLURON COMPOUND AND TERBUTRYN FOR DRY FILM PROTECTION” (Rohm and Haas Company, priority 2013, published 2016).

What was measured:
Chlorella sp. ATCC 7516 = experiment: Algal efficacy testing of dry paint films (modified ASTM 5589, 6-well plates); assay type: cell-based; conditions: 3 weeks; for % inhibition: at the listed total conc, versus blank sample; for Total conc (lowest concentration passing, pass level ≧75% inhibition): total biocide in acrylic/silicone paint, dry film on filter paper
Method: (§1) Slurries containing 33% antimicrobial active ingredient (chlorotoluron) and 45% antimicrobial ingredient terbutryn were post added to a white, acrylic/silicone based outdoor paint free of biocides to give a total active ingredient concentration of 10000 and 1000 ppm respectively. These paints were then diluted with an antimicrobial free acrylic/silicone based paint and mixed to prepare targeted concentrations of antimicrobial compounds for the testing. The total biocides concentrations tested were 125, 250, 500, 1000, 2000 and 5000 ppm. After biocides addition or dilution, the paints were mixed 90 seconds with the horse power shaker (AXEL 75M3372/Agitateur SO-10MI) until uniformity was achieved. Paints containing different antimicrobial compounds at the same levels were mixed together in order to obtain the desired ratio of antimicrobial compounds. After one day, the paints were applied to Schleicher & Schuell filter paper at 280 μm wet film thickness and dried for 3 days at room temperature avoiding direct exposure to sunlight. Square discs (1.6 cm×1.6 cm) were cut out from each panel and were used as the substrate for algal efficacy tests. This sample size allowed for an agar border when the sample disc was placed into the well of the test plate.
(§2) Algal efficacy was tested according to modified ASTM 5589 which is a standard accelerated test method for determining resistance of various coatings (including paints) to algal defacement. To accommodate for high-throughput screening, this method was scaled down from petri dishes to 6-well plates. Bold Modified Basal Freshwater Nutrient Solution was used as growth medium. A single coated filter paper coupon was placed with a pair of sterile forceps at the center of the agar plug (on top) with the painted surface facing upwards. Algal inoculums were prepared by mixing equal concentrations (1×10^6 cfu/ml) and equal volumes of exponentially growing algae cultures.
(§3) Each well that contains a tested coupon was inoculated with 1750 μl of algal suspensions (1×10^6 cfu/ml) making sure that the whole surface (paint film as well as the agar surrounding it) was evenly covered. The plates were incubated at room temp (21° C.-25° C.) with cyclic exposure to light and dark phases, for a period of three weeks. The total area inhibited was evaluated at the end of each week according to percent area covered in 5% increments
(§4) At the end of the three week incubation period, the samples were scored for percent inhibition regarding color intensity compared to the blank sample.
(§5) The SI is calculated based on F. C. Kull et.
(§6) SI value of <1 in the formula indicates a synergism of the blended biocides exists.
(§7) The minimal targeted inhibition was set at 75%, meaning a coupon with at least 75% algal growth inhibition was considered as a pass.

[1] = tested on: Stichococcus bacillaris SAG 379-1a / CCAP 379/1a; experiment: as above; assay type: cell-based; conditions: 3 weeks; for % inhibition: at the listed total conc, versus blank sample; for Total conc (lowest concentration passing, pass level ≧75% inhibition): total biocide in acrylic/silicone paint, dry film on filter paper
Method: as §1, §2, §3, §4, §5, §6, §7

| SMILES | % inhibition (Chlorella sp. ATCC 7516) [%] | Total conc (lowest concentration passing, pass level ≧75% inhibition) (Chlorella sp. ATCC 7516) [ppm] | % inhibition [1] [%] | Total conc (lowest concentration passing, pass level ≧75% inhibition) [1] [ppm] |
| --- | --- | --- | --- | --- |
| CCNc1nc(NC(C)(C)C)nc(SC)n1 [Terbutryn, N^2-tert-butyl-N^4-ethyl-6-methylthio-1,3,5-triazine-2,4-diamine] | 90 | 500 | 80 | 2000 |
| Cc1ccc(NC(=O)N(C)C)cc1Cl [Chlorotoluron, N′-(3-chloro-4-methylphenyl)-N,N-dimethylurea] | 100 | 1000 | 90 | 500 |
